Data from ChEMBL document CHEMBL1133946, “An approach to the identification of potent inhibitors of influenza virus fusion using parallel synthesis methodology” (Bioorg Med Chem Lett, 2001).
Converted amounts (≈) assume the structure as drawn.

Legend:
[1] = system: unidentified influenza virus; test: Cytotoxicity of compound was measured against Influenza virus;in range of 8-9; type: functional
[2] = Compound tested for inhibition of hemolysis; type: functional
[3] = system: unidentified influenza virus; test: Compound tested for inhibition of influenza virus infectivity in cell culture determined by plaque reduction assay;Inactive; type: functional, organism-based
[4] = system: unidentified influenza virus; test: Cytotoxicity of compound was measured against Influenza virus; type: functional
[5] = system: unidentified influenza virus; test: Compound tested for inhibition of influenza virus infectivity in cell culture determined by plaque reduction assay; type: functional, organism-based
[6] = unidentified influenza virus, read-out: CC50
[7] = unidentified influenza virus, read-out: EC50

Row | Compound | CC50 [1] | IC50 [2] | EC50 [3] | CC50 [4, 6] | EC50 [5, 7] | CC50 [4] | EC50 [5]
1 | CC1(C)C[C@H](O)C[C@](C)(C/N=C(\S)c2cccc(Cl)c2)C1 | 8 mg/L (≈ 24.5 µM) | 2.5 mg/L (≈ 7.67 µM) | Not Active |  |  |  | 
2 | Cc1ccc(O)c(C(=O)NC[C@]2(C)C[C@H](O)CC(C)(C)C2)c1 |  | 0.15 mg/L (≈ 0.491 µM) |  | 50 mg/L (≈ 164 µM) | 0.136 mg/L (≈ 0.445 µM) |  | 
3 | CC1(C)C[C@H](O)C[C@@](C)(CNC(=S)c2cccc(Cl)c2)C1 |  | 0.047 mg/L (≈ 0.144 µM) |  | 20 mg/L (≈ 61.4 µM) | 0.02 mg/L (≈ 0.0614 µM) |  | 
4 | Cc1ccc(O)c(C(=O)NC[C@@]2(C)C[C@H](O)CC(C)(C)C2)c1 |  | 0.033 mg/L (≈ 0.108 µM) |  | 70 mg/L (≈ 229 µM) | 0.037 mg/L (≈ 0.121 µM) |  | 
5 | C[C@@H]1CCC[C@@H]2C[C@@H](NC(=O)c3cc(Cl)c(N)cc3O)CCN21 |  | 0.44 mg/L (≈ 1.3 µM) |  | > 100 mg/L | 2 mg/L (≈ 5.92 µM) |  | 
6 | CC1(C)C[C@H](O)C[C@@](C)(CNC(=O)c2cc(Cl)ccc2O)C1 (stereo in doubt; 10b) |  | 0.25 mg/L (≈ 0.767 µM) |  |  |  | >100 mg/L | 0.13 mg/L (≈ 0.399 µM)
7 | CC1(C)C[C@H](O)C[C@@](C)(CNC(=O)c2cc(Cl)ccc2O)C1 (stereo in doubt; 11b) |  | 0.025 mg/L (≈ 0.0767 µM) |  | 80 mg/L (≈ 246 µM) |  |  | 0.03 mg/L (≈ 0.0921 µM)
